Assay results taken from patent US10189809B2, “SGC stimulators” (Ironwood Pharmaceuticals, Inc., priority 2010, dated 2019).

Legend:
[1] = biological target: T1, Human soluble guanylate cyclase enzyme (hsGC) (Homo sapiens (Human), UniProt Q02108+Q02153); experiment: Purified human sGC enzyme synergy assay in the presence of 1 μM sodium nitroprusside (SNP); format: biochemical; conditions: with 1 μM SNP; for sGC Enzyme (fold increase at 10 μM with SNP): 10 μM compound; for sGC Enzyme (fold increase at 30 μM with SNP): 30 μM compound
Description: Human soluble guanylate cyclase enzyme (hsGC) obtained from Enzo Inc. (P/N: ALX-201-177) was used to evaluate the activity of test compounds. The assay reactions contained 0.1 M Tris (pH 8.0), 0.5 mg/mL BSA (pH 8.0), 2 mM DTT, 2 mM MgCl2, 300 μM GTP, 1 mM 3-isobutyl-1-methylxanthine (IBMX) and 5 ng human soluble guanylate cyclase enzyme. Test compounds in DMSO were then added (2 μL, 10 or 30 μM final concentration) and incubated (200 μL, 96-well plate format) at 37° C. for 30 minutes. The controls were carried out using 2 μL DMSO. After the 30 minute incubation, the reaction was stopped with the addition of 200 μL of cold methanol. The plate was then centrifuged at 3,200 rpm for 10 minutes at room temperature. Supernatants (200 μL) were collected and transferred to a new 96 well plate for analysis.
An 8 point cGMP (Sigma-Aldrich P/N: G6129) standard curve was prepared in assay buffer ranging from 0.156-20 μM. Samples for the cGMP standard curve were then diluted with an equal volume of methanol resulting in final cGMP concentrations of 0.078-10 μM.
The cGMP standard curve was generated using GraphPad Prism Software.
Calculations: Specific Activity was determined by the amount of cGMP formed (nmoles) per mg of sGC per min. Enzyme “fold-change” was calculated by dividing Specific Activity for test compounds by Specific Activity of DMSO controls.
Enzyme assays were performed as described above, but was done in the presence of 1 μM sodium nitroprusside (SNP).

[2] = biological target: T1, Human soluble guanylate cyclase enzyme (hsGC); experiment: Purified human sGC enzyme activity assay; format: biochemical; conditions: for sGC Enzyme (specific activity at 10 μM) / sGC Enzyme (fold increase at 10 μM without SNP): 10 μM compound; for sGC Enzyme (specific activity at 30 μM) / sGC Enzyme (fold increase at 30 μM without SNP): 30 μM compound
In short: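 Values are fold-change of sGC specific activity, nmoles cGMP per mg enzyme per min, relative to DMSO controls. Reactions: 5 ng human enzyme, 300 μM GTP, 1 mM IBMX, 2 mM MgCl2/DTT, 0.1 M Tris pH 8.0, compound 10 or 30 μM final, 37° C for 30 minutes, methanol quench. cGMP read against a 0.078-10 μM final standard curve.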

[3] = biological target: soluble guanylate cyclase (sGC) (Homo sapiens (Human), UniProt Q02108+Q02153); experiment: sGC-HEK-cGMP assay run with SNP incubation (HEK WC assay); format: cell-based; conditions: for Emax at 10 µM: read-out: HEK WC Assay (% Emax at 10 uM/with 10 uM SNP); for Emax at 30 µM: read-out: HEK WC Assay (% Emax at 30 uM/with 10 uM SNP)
In short: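 EC50 values derive from concentration-response curves of intracellular cGMP in HEK293 cells, which express sGC endogenously. Compound and sodium nitroprusside were co-incubated 10 min at 37 °C after a 15-min 0.5 mM IBMX step, with 0.1 M HCl lysis and 1% DMSO vehicle.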

soluble guanylate cyclase (sGC), sequence (Q02153 whole entry): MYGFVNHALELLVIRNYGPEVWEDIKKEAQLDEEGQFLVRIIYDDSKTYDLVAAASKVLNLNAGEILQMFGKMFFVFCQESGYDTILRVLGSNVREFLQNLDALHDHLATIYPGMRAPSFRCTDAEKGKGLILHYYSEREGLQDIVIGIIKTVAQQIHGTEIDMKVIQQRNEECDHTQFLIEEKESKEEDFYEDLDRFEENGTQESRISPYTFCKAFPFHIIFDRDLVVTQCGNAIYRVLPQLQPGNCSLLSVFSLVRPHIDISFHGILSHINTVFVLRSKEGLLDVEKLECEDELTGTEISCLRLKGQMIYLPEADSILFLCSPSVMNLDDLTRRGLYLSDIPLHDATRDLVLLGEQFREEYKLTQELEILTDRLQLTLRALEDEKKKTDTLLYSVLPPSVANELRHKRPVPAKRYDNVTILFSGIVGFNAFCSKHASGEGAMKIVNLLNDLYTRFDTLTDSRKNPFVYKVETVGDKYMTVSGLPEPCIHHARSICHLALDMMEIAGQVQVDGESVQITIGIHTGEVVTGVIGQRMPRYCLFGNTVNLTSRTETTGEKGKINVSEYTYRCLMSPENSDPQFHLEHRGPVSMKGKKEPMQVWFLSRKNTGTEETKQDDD
soluble guanylate cyclase (sGC), sequence (Q02108 whole entry): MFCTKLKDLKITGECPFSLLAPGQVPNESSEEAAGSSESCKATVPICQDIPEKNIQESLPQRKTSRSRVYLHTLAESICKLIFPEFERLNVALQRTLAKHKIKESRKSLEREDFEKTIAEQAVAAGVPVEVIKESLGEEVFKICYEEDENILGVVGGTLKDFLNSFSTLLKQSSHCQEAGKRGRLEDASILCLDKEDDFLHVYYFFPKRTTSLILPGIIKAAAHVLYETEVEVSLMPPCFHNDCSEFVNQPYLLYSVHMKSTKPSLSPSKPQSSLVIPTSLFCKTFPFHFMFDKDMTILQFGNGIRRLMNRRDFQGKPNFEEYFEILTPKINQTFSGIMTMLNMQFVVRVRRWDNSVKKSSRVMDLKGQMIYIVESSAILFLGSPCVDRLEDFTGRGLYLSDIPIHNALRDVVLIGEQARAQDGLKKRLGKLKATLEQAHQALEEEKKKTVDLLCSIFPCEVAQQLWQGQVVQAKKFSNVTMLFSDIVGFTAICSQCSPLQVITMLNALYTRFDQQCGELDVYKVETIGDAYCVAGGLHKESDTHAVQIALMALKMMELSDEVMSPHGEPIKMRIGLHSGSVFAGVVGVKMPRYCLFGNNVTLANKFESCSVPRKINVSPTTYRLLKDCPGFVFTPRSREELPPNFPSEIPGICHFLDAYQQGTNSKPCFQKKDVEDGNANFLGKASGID
T1 sequence (Q02153 whole entry): as the sequence (Q02153 whole entry) above
T1 sequence (Q02108 whole entry): as the sequence (Q02108 whole entry) above

Compound | sGC Enzyme (fold increase at 10 μM with SNP) [1] | sGC Enzyme (fold increase at 30 μM with SNP) [1] | sGC Enzyme (specific activity at 10 μM) [2] | sGC Enzyme (fold increase at 10 μM without SNP) [2] | sGC Enzyme (specific activity at 30 μM) [2] | sGC Enzyme (fold increase at 30 μM without SNP) [2] | Emax at 10 µM [3] [%] | Emax at 30 µM [3] [%]
Cc1cccc(-c2cc(-c3ccccn3)nn2Cc2ccccc2F)c1 [Compound I-22] | A (A = no increase to <2 fold increase) | A (A = no increase to <2 fold increase) | C (C = 100 to <200) | A (A = no increase to <2 fold increase) | C (C = 100 to <200) | B (B = 2 to <5 fold increase) | 0 to 10 | 0 to 10
Cc1ccc(-c2cc(-c3ccccn3)nn2Cc2ccccc2F)cc1 [Compound I-23] | B (B = 2 to <5 fold increase) | B (B = 2 to <5 fold increase) | C (C = 100 to <200) | B (B = 2 to <5 fold increase) | D (D = 200 to <500) | B (B = 2 to <5 fold increase) | 0 to 10 | 0 to 10
COc1cccc(-c2cc(-c3ccccn3)nn2Cc2ccccc2F)n1 [Compound I-25, 2-(1-(2-fluorobenzyl)-3-(pyridin-2-yl)-1H-pyrazol-5-yl)-6-methoxypyridine] | B (B = 2 to <5 fold increase) | C (C = 5 to <10 fold increase) | C (C = 100 to <200) | A (A = no increase to <2 fold increase) | D (D = 200 to <500) | A (A = no increase to <2 fold increase) | 0 to 10 | 10 to 20
Fc1ccccc1Cn1nc(-c2ccccn2)cc1-c1cccs1 [Compound I-35] | B (B = 2 to <5 fold increase) | C (C = 5 to <10 fold increase) | D (D = 200 to <500) | B (B = 2 to <5 fold increase) | D (D = 200 to <500) | B (B = 2 to <5 fold increase) | 10 to 20 | 10 to 20
COc1ccc(-c2cc(-c3ccccn3)nn2Cc2ccccc2F)cc1 [Compound I-40] | A (A = no increase to <2 fold increase) | B (B = 2 to <5 fold increase) | C (C = 100 to <200) | A (A = no increase to <2 fold increase) | C (C = 100 to <200) | A (A = no increase to <2 fold increase) | 0 to 10 | 0 to 10
Fc1ccccc1Cn1nc(-c2ccccn2)cc1-c1nnn[nH]1 [Compound I-43] | A (A = no increase to <2 fold increase) | A (A = no increase to <2 fold increase) | C (C = 100 to <200) | A (A = no increase to <2 fold increase) | C (C = 100 to <200) | A (A = no increase to <2 fold increase) | 0 to 10 | 0 to 10
Cc1nnc(-c2cc(-c3ccccn3)nn2Cc2ccccc2F)o1 [Compound I-46] | A (A = no increase to <2 fold increase) | A (A = no increase to <2 fold increase) | C (C = 100 to <200) | A (A = no increase to <2 fold increase) | D (D = 200 to <500) | A (A = no increase to <2 fold increase) | 0 to 10 | 0 to 10
CC(C)c1cc(-c2ccccn2)nn1Cc1ccccc1F [Compound I-47] | B (B = 2 to <5 fold increase) | B (B = 2 to <5 fold increase) | D (D = 200 to <500) | A (A = no increase to <2 fold increase) | D (D = 200 to <500) | B (B = 2 to <5 fold increase) | 0 to 10 | 0 to 10
Fc1ccccc1Cn1nc(-c2ccccn2)cc1C1CCCCC1 [Compound I-48] | B (B = 2 to <5 fold increase) | C (C = 5 to <10 fold increase) | D (D = 200 to <500) | B (B = 2 to <5 fold increase) | E (E = 500 to <1000) | B (B = 2 to <5 fold increase) | 0 to 10 | 0 to 10
Fc1ccccc1Cn1nc(-c2ccccn2)cc1-c1ccc(Br)cn1 [Compound I-51, 5-bromo-2-(1-(2-fluorobenzyl)-3-(pyridin-2-yl)-1H-pyrazol-5-yl)pyridine] | A (A = no increase to <2 fold increase) | A (A = no increase to <2 fold increase) | – | A (A = no increase to <2 fold increase) | – | A (A = no increase to <2 fold increase) | 0 to 10 | 0 to 10
Fc1ccccc1Cn1nc(-c2ccc(Br)cn2)cc1-c1ccccn1 [Compound I-52, 5-bromo-2-(1-(2-fluorobenzyl)-5-(pyridin-2-yl)-1H-pyrazol-3-yl)pyridine] | A (A = no increase to <2 fold increase) | A (A = no increase to <2 fold increase) | – | A (A = no increase to <2 fold increase) | – | A (A = no increase to <2 fold increase) | 0 to 10 | 0 to 10
Fc1ccccc1Cn1nc(-c2ccccn2)c(I)c1-c1ccccn1 [Compound I-53] | A (A = no increase to <2 fold increase) | A (A = no increase to <2 fold increase) | – | A (A = no increase to <2 fold increase) | – | A (A = no increase to <2 fold increase) | 0 to 10 | 0 to 10
N#Cc1c(-c2ccccn2)nn(Cc2ccccc2F)c1-c1ccccn1 [Compound I-54, 1-(2-fluorobenzyl)-3,5-di(pyridin-2-yl)-1H-pyrazole-4-carbonitrile] | A (A = no increase to <2 fold increase) | A (A = no increase to <2 fold increase) | – | A (A = no increase to <2 fold increase) | – | A (A = no increase to <2 fold increase) | 0 to 10 | 0 to 10
Cc1cc(-c2ccccn2)nn1Cc1ccccc1F [Compound I-55] | B (B = 2 to <5 fold increase) | B (B = 2 to <5 fold increase) | – | A (A = no increase to <2 fold increase) | – | B (B = 2 to <5 fold increase) | 10 to 20 | 20 to 40
Cc1ccc(-c2cc(-c3ccccn3)nn2Cc2ccccc2F)nc1 [Compound I-56] | A (A = no increase to <2 fold increase) | A (A = no increase to <2 fold increase) | B (B = 50 to <100) | A (A = no increase to <2 fold increase) | B (B = 50 to <100) | A (A = no increase to <2 fold increase) | 0 to 10 | 0 to 10
